Legend:
Assay in all cases: UDP-Glo UDP release assay
Type in all cases: biochemical
GALNT2 = molecular target: T1, GALNT2 (Homo sapiens, UniProt Q10471); details: 50 μM UDP sugar, 50 μM MUC5AC peptide, 150 nM enzyme, 25 mM Tris-HCl pH 7.4, 10 mM MnCl2, room temperature
T1 construct: truncated, residues 75-572 as printed, hT2-pKN55 vector, secreted from Pichia pastoris SMD1163, Ni-NTA purified

GALNT1 = molecular target: T2, GALNT1 (Homo sapiens, UniProt Q10472); details: 50 μM UDP sugar, 50 μM MUC5AC peptide, 10 nM enzyme, 25 mM Tris-HCl pH 7.4, 10 mM MnCl2, room temperature
T2 construct: truncated, residues 41-559, plasmid hT1-pKN55, secreted from Pichia pastoris SMD1163, Ni-NTA purified
T2 sequence (Q10472 41-559): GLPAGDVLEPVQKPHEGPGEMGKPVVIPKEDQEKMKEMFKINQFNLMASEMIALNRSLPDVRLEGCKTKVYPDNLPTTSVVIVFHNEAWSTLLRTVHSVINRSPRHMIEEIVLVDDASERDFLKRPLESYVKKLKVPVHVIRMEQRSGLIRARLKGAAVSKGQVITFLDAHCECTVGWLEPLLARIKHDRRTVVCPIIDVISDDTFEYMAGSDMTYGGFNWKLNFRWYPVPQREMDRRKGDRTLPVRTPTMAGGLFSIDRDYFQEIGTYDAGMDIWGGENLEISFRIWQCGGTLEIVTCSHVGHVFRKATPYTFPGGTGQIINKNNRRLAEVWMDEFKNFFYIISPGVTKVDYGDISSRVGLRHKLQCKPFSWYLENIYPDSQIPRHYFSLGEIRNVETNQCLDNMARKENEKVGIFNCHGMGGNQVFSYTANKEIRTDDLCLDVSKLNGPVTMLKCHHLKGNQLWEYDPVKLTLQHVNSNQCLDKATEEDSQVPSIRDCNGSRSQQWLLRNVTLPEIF

ncOGT (OGT) = molecular target: T3, ncOGT (OGT) (Homo sapiens, UniProt O15294); details: 40 μM UDP sugar, 125 μM CKII3K peptide, 300 nM enzyme, 25 mM Tris-HCl pH 7.4, 150 mM NaCl, room temperature
T3 sequence (O15294 2-1046): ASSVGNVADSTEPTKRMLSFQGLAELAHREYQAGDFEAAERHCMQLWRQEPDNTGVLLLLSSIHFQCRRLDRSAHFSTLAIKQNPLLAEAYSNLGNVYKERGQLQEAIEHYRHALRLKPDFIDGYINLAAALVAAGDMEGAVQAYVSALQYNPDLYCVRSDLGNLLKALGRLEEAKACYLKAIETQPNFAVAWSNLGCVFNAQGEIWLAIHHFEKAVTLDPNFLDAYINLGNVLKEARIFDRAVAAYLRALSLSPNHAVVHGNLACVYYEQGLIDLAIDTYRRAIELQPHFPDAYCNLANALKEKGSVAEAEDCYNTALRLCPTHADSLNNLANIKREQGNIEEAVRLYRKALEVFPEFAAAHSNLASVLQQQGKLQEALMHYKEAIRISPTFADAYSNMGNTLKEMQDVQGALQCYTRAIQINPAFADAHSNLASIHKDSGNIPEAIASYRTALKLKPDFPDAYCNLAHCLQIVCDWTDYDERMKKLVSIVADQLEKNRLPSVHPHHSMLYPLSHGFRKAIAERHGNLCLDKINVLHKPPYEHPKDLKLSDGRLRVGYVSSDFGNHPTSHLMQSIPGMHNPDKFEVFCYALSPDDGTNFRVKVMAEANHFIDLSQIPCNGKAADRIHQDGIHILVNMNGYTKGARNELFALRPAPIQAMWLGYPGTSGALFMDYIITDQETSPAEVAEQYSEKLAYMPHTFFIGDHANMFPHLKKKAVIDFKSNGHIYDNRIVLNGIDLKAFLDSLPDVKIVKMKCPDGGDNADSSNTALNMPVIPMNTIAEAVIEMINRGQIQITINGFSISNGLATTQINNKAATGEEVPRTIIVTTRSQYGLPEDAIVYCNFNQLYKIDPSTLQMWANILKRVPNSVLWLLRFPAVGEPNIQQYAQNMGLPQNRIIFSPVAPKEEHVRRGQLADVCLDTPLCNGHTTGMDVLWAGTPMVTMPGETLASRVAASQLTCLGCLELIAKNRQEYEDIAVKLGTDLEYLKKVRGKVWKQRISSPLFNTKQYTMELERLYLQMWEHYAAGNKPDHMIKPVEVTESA

T1 sequence (Q10471 75-571): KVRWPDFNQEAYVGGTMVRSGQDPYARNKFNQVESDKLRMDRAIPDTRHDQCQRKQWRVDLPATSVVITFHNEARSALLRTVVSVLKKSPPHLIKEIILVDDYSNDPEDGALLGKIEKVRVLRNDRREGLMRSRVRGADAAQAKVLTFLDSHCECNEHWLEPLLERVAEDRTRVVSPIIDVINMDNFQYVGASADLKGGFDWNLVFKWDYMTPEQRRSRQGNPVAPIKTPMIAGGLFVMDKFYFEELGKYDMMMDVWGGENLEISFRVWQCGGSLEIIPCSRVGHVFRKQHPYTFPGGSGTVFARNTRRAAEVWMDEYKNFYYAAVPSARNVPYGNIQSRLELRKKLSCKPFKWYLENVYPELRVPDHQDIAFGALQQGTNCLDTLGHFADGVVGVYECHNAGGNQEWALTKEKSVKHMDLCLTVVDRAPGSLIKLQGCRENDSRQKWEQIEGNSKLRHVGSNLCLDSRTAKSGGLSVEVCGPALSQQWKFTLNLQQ

SMILES | UDP-Glo UDP release assay (GALNT2) | UDP-Glo UDP release assay (GALNT1) | UDP-Glo UDP release assay (ncOGT (OGT))
CC(=O)N[C@H]1[C@@H](OP(=O)(O)OP(=O)(O)OC[C@H]2O[C@@H](n3ccc(=O)[nH]c3=O)[C@H](O)[C@@H]2O)O[C@H](CO)[C@H](O)[C@@H]1O [UDP-GalNAc] | despite clear turnover of the native UDP-GalNAc substrate | despite clear turnover of the native UDP-GalNAc substrate | –
CC(=O)N[C@H]1[C@@H](OP(=O)(O)OP(=O)(O)OC[C@H]2O[C@@H](n3ccc(=O)[nH]c3=O)[C@H](O)[C@@H]2O)O[C@H](CO)[C@@H](O)[C@@H]1O [UDP-GlcNAc] | – | – | OGT accepted UDP-GalNAc but less efficiently than UDP-GlcNAc
